# From patent publication US20240335465A1 (University of Virginia Patent Foundation, priority 2021, published 2024)
# Assays:
# DDR signaling [1] = assay: DDR signaling immunoblot in HEK293 cells; assay type: cell-based, human; conditions: HEK293, 2 μM KU-55933 1 hr, cGAMP 16 hours
# cell cycle progression = assay: Cell cycle analysis by flow cytometry (BrdU, propidium iodide); assay type: cell-based, human
# Experimental: Cells were washed with cold PBS and resuspended in 0.5 ml PBS to achieve a single cell suspension. Cells were fixed in a tube containing 4.5 ml 70% ethanol kept at 4° C. overnight. Cells were collected by centrifugation at 500 g for 5 minutes and washed twice with PBS. Washed cells were then stained with 1 ml of freshly prepared staining solution containing propidium iodide (10 μg/ml), DNase-free RNaseA (100 μg/ml), and 0.1% (v/v) Triton X-100 before being subjected to flow cytometry measurement. To determine percentage of cell population in various cell cycle stage, ˜10,000-30,000 cells were acquired on an Attune NxT cytometer and analyzed using FCS Express software. Cell cycle analysis was performed on propidium iodide stained cells and single cell events were determined by gating on the area against the width of the propidium iodide pulse signal. DNA cell cycle modeling and fit was performed using the Multicycle AV plugin (Phoenix Flow Systems).
# Cells were fixed and stained to detect BrdU incorporation by flow cytometry following the manufacturer's protocol (FITC BrdU Flow Kit, BD Biosciences, Cat #559619).
# HEK293-TrLR cells = assay: HDR and NHEJ assay using Traffic Light Reporter; assay type: cell-based, human
# Experimental: TrLR-integrated HEK293 cells were selected through exposure to 5 μg/ml puromycin for 2 weeks. […] 8 hours following this procedure, cells were transfected with pCVL SFFV d14GFP Donor (Addgene Cat #31475), pCBASceI (Addgene Cat #26477)), or Donor+SceI using Lipofectamine 3000. 72 hours post-transfection, cells were trypsinized, collected, and analyzed with an Attune NxT flow cytometer (Thermofisher). To quantify the DNA repair events, ˜10,000-30,000 cells were acquired on an Attune NxT cytometer and analyzed using FCS Express software. Single cell events were determined by gating on the area against the width of the forward scatter pulse signal. Debris removal was performed by excluding events with very low forward and side scatter. For determining % of GFP and mCherry positive cells we established positive and negative populations using mock transfections as negative controls and GFP or mCherry transfected samples as Fluorescence Minus One controls.
# ATM = ATM (Homo sapiens, UniProt Q13315); conditions: recombinant ATM and TBK1; 25 μM ATM inhibitor, 10 μM TBK1 inhibitor
# Experimental: 2× laemmli buffer was added and the mixture which was then incubated at 98° C. for 10 mins. The protein mixtures were separated on a 7.5% SDS/PAGE gel and immunoblotted for anti phospho-ATM (Ser1981) antibody to assess phosphorylation status if ATM. To test the effect of inhibitors on recombinant TBK1 mediated ATM phosphorylation, 25 μM ATM inhibitor, and 10 μM TBK1 inhibitor and was pre-incubated with recombinant ATM or recombinant TBK1 (TBK1 inhibitor) before setting up the kinase assay as described above.
# DDR signaling [2] = assay: DDR signaling immunoblotting in THP1 cells; conditions: for DDR induction in cells lacking STING or TBK1: STING−/− or shTBK1 cells
# DDR signaling [3] = assay: DDR signaling immunoblotting in primary mouse embryonic fibroblasts; conditions: for DDR signaling (γH2AX): cGAS−/− and cGAS GS198AA primary MEFs vs WT
# Crassostrea virginica = assay: DDR in oysters after adductor muscle injection; assay type: in vivo; conditions: hemocytes; cGAMP 25 μg/50 gm, doxorubicin 1 μg/50 gm oyster weight, 16 hours
# Experimental: Oysters: Wild adult eastern oysters (Crassostrea virginica) of both male and female sexes ranging from 2 cm-7 cm in length (1 to 3 years in age) were collected from a natural oyster reef on Virgnia's Eastern Shore. Following collection, the diploid oysters were placed on ice and transported approximately 3 h to the University of Virginia main campus in Charlottesville, VA. There they were stored in an aerated aquarium containing water supplemented with Instant Ocean® Aquarium Sea Salt (50 gm/l). […] Treated oysters were kept at 4° C. in the dark for 16 hours after which they were shucked, had their hemolymph/tissues harvested for analysis by western blotting, and dead oyster and shell were disposed of.
# cGAMP = assay: 2′3′-cGAMP ELISA in THP1 cells; assay type: cell-based, human; conditions: WT THP1, 1 μM Doxorubicin, 1 hr
# γH2AX = γH2AX immunofluorescence (human RPE, THP1 cells); assay type: cell-based
# Experimental: Immunofluorescence Staining: 16,500 adherent cells/cm^2 were plated on a gelatin coated 8-chamber slide (VWR, Catalogue #62407-296) and treated as indicated. Media was removed and cells were washed with 1×PBS with Ca^2+/Mg^2+ and fixed with 4% PFA for 20 minutes. Fixed cells were permeabilized with PBS+0.1% Triton-X and washed 3 times with PBS+0.1% Tween20. After treatment as indicated, non-adherent THP1 cells were collected by centrifugation, washed in cold PBS and fixed in PFA. Post-fixation, they were washed with PBS, spotted on gelatin coated “PTFE” Printed Slides (Electron Microscopy Sciences, Cat #63424-06), and air-dried. For γH2AX staining, permeabilized cells were blocked in Serum-free DAKO Protein Block (Agilent, Catalogue #X0909) for 1 hr at room temperature. Cells were incubated in primary antibody (γH2AX, 1:500; anti-HA, 1:100; Table 1) in DAKO antibody diluent at 4° C. overnight on a rocker platform. U2OS-STING cells undergoing Rad51 staining were first fixed in methanol for 20 minutes in −20° C., blocked for 1 hr with donkey block (2% normal donkey serum, 1% BSA, 0.1% Triton X 100, 0.05% Tween20, 0.05% Sodium Azide in PBS), then finally incubated in an anti-Rad51 antibody overnight at 4° C. (Bio-academia Cat #70-001, 1:6000 in 5% milk in TBST). For RPA70 staining, cells were fixed in 4% PFA at room temperature for 20 minutes and blocked in Cell Signaling blocking buffer (1×PBS/5% normal donkey serum/0.3% Triton™ X-100) for 1 hr in room temperature then incubated in an RPA70 antibody (Cell Signaling Cat #2267, 1:50 in blocking buffer) overnight at 4° C. Primary antibody was washed 3 times and incubated with secondary antibodies (Invitrogen, Alexa 555, 488) for 1 hr at room temperature. Coverslips were mounted on the cells with ProLong™ Gold Antifade mounting media with DAPI (Thermofisher, Catalogue #P36935). All images were obtained by confocal microscopy (Nikon, C2).
# cGAS [4] = assay: HA-cGAS co-immunoprecipitation in HA-cGAS-reconstituted cGAS−/− MEFs; assay type: cell-based, mouse; conditions: doxorubicin 2 μM 6 hours
# Experimental: Immunoprecipitation: Cells were treated as indicated and were lysed in RIPA buffer. Co-immunoprecipitation experiments were conducted using Dynabeads™ Protein G Immunoprecipitation Kits (Thermo Fisher, Catalogue #10007D) as per the manufacturer's protocol. 50 μl of Dynabead slurry was added to a microfuge tube and placed on a magnet to separate the solution. Beads were washed in 200 μl PBS with 0.1% Tween20 (3 times) before 5 μg antibody along with […] protein lysate diluted in PBS-tween20 to a final volume of 500 μl was added to the beads and incubated overnight at 4° C. with rotation. Beads were collected by magnetic separation and washed 3 times with wash buffer (10 mM Tris; adjust to pH 7.4, 1 mM EDTA; pH 8.0, 150 mM NaCl). Finally, bead-bound proteins were eluted by boiling in 1× Laemmli buffer and samples analyzed by western blotting.
# cGAS, STING, and TBK1 = conditions: doxorubicin 2 μM 6 hours; cGAMP 16 hours
# Experimental: Cell Fractionation: THP1 cells were treated as indicated, then nuclear and cytoplasmic fractions were isolated using NE-PER™ Nuclear and Cytoplasmic Extraction Reagents (Thermo Scientific, Catalogue #78833) following the manufacturer's protocol. 20 g of cytoplasmic and nuclear proteins were used for immunoblotting.
# Nematostella vectensis = assay: DDR in starlet sea anemones; assay type: in vivo; conditions: whole animals; cGAMP in digitonin solution 10 minutes; doxorubicin 2 μM; 16 hours
# Source text: Starlet sea anemones: Wild type, laboratory maintained, Self-sustaining Nematostella vectensis culture containing of 3-6 months old male and female animals (Putnam et al., 2007) was a kind gift from Timothy J. Jegla (Penn State University Department of Biology). They were maintained in 6-well plates containing water with Instant Ocean® Aquarium Sea Salt (50 gm/l) and fed brine shrimp. […] Permeabilization solution was removed and the animals returned to maintenance sea salt water. Doxorubicin was added to the maintenance sea salt water to a final concentration of 2 μM. 16 hours post treatment. N. vectensis were collected and washed once with cold PBS before the addition of 200 μl RIPA buffer. Samples were homogenized by sonication and centrifuged at 4° C. to remove debris. Soluble lysates were quantified for protein analysis by western blot.
# PARylation = assay: PolyADP-ribosylation (PARylation) immunoblot; assay type: cell-based, human; conditions: THP1, 2 mM NAM 18 hours, 250 μM H2O2 10 minutes
# Source text: Cells were collected by centrifugation, washed once with ice-cold PBS, lysed in RIPA buffer and analyzed by western blot to detect PARylation using pADPr Antibody (Santa Cruz sc-56198).
# PARP = PARP activity assay; assay type: cell-based, human
# Experimental: Post cGAMP treatment, cells were collected by centrifugation and washed with cold PBS once and resuspended in Cell Extraction Buffer. PARP activity was measured using the Chemiluminescent Assay Kit (R&D, Catalog Number: 4685-096-K) following manufacturer's protocol.
# NAD^+ = assay: NAD+ quantification; assay type: cell-based, human; conditions: THP1, 2 mM, 4 mM and 8 mM NAM, 18 hours
# cGAS [5] = conditions: Liu et al., 2018; cited from earlier work
# U2OS-STING cells = assay: RAD51 and RPA70 foci in EdU+ U2OS-STING cells; assay type: cell-based, human; conditions: EdU-positive S-phase cells, Camptothecin 5 μM 16 hours
# Experimental: Immunofluorescence Staining: 16,500 adherent cells/cm^2 were plated on a gelatin coated 8-chamber slide (VWR, Catalogue #62407-296) and treated as indicated. Media was removed and cells were washed with 1×PBS with Ca^2+/Mg^2+ and fixed with 4% PFA for 20 minutes. Fixed cells were permeabilized with PBS+0.1% Triton-X and washed 3 times with PBS+0.1% Tween20. After treatment as indicated, non-adherent THP1 cells were collected by centrifugation, washed in cold PBS and fixed in PFA. Post-fixation, they were washed with PBS, spotted on gelatin coated “PTFE” Printed Slides (Electron Microscopy Sciences, Cat #63424-06), and air-dried. For γH2AX staining, permeabilized cells were blocked in Serum-free DAKO Protein Block (Agilent, Catalogue #X0909) for 1 hr at room temperature. Cells were incubated in primary antibody (γH2AX, 1:500; anti-HA, 1:100; Table 1) in DAKO antibody diluent at 4° C. overnight on a rocker platform. […]
# EdU incorporated cells were detected by confocal microscopy after Click-iT® EdU labeling following the manufacturer's protocol (Click-iT™ EdU Alexa Fluor™ 594 Imaging Kit, Thermo Fisher Cat #C10339).
# Sequence of ATM (Q13315 whole entry): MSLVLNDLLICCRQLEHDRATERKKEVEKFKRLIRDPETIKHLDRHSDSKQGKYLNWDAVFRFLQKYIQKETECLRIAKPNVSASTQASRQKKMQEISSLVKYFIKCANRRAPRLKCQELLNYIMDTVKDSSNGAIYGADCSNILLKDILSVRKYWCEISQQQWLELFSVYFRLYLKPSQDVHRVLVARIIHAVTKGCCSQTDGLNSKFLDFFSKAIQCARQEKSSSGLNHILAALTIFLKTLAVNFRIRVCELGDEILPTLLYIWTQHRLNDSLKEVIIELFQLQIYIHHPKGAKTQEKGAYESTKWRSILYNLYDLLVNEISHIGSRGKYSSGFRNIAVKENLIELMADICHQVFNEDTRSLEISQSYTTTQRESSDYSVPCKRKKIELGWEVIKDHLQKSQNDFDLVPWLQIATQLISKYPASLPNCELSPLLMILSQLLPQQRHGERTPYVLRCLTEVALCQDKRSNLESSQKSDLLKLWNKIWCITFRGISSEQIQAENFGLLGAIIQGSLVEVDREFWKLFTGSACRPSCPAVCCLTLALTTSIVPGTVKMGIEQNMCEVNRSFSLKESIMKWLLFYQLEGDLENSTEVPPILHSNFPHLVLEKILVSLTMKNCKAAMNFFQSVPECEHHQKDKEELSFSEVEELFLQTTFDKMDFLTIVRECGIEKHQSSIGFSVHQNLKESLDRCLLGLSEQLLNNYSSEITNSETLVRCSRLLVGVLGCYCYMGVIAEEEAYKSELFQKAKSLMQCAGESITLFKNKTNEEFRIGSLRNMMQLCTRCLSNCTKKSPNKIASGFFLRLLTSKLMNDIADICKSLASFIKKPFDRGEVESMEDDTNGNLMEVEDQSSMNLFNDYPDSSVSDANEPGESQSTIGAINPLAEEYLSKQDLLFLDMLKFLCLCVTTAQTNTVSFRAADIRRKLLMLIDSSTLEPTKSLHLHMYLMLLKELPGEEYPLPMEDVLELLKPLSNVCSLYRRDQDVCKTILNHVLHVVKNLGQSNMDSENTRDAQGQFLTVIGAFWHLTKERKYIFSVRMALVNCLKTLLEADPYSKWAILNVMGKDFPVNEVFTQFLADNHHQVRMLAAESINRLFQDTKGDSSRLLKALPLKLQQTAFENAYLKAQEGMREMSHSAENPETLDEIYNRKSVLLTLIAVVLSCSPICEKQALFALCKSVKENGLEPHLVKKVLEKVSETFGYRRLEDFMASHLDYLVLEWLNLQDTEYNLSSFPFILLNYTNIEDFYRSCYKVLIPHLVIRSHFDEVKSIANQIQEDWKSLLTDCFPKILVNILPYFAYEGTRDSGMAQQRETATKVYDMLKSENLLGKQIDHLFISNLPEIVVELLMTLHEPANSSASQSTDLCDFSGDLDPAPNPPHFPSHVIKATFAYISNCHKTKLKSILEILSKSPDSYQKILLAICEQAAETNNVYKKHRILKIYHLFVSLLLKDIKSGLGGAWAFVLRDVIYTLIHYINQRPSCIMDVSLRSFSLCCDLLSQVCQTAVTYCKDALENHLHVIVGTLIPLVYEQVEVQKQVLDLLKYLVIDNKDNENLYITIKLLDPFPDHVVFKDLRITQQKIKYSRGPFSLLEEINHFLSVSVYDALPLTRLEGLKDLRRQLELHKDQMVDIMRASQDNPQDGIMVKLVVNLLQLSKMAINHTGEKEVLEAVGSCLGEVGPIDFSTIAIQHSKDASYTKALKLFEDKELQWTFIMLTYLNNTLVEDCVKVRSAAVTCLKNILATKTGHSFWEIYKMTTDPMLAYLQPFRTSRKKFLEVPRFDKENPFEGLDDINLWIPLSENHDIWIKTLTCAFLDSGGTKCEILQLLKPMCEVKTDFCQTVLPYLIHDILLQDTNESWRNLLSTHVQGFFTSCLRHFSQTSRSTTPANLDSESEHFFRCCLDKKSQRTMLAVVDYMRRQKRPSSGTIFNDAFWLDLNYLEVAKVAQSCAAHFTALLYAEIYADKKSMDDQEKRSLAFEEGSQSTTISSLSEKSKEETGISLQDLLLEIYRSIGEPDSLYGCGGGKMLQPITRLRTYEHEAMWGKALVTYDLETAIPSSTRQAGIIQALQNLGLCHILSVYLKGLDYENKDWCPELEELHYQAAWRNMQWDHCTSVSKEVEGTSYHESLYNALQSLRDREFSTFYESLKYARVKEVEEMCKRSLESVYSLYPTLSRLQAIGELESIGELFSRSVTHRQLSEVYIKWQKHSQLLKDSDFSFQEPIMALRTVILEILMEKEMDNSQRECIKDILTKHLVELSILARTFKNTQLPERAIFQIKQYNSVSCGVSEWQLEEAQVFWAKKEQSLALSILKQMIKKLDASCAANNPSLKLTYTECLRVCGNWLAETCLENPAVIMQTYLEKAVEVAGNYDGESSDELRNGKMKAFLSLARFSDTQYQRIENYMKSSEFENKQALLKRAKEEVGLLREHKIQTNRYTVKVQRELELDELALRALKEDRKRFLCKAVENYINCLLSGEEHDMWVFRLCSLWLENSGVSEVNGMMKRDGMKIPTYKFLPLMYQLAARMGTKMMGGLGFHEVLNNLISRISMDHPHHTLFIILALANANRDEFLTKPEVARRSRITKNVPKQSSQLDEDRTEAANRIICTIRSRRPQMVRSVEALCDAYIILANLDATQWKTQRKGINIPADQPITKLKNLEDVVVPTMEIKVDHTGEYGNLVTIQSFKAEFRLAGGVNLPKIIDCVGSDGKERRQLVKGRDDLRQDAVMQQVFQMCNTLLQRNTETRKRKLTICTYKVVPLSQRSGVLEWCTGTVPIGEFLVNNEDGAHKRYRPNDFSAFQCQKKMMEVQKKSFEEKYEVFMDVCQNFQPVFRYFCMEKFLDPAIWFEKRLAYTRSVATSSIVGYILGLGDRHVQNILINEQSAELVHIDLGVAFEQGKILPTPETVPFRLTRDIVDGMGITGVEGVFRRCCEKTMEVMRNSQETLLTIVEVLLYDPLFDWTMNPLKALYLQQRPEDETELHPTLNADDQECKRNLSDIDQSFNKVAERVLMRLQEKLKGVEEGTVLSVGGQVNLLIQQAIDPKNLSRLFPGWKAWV
compound,measurement,setting,value
O=c1cc(-c2cccc3c2Sc2ccccc2S3)oc(N2CCOCC2)c1 [KU55933],effect on cGAMP-induced γH2AX and pCHK2,DDR signaling [1],suppressed the ability of cGAMP to induce γH2AX and pCHK2
same,effect of ATM inhibitor on cGAMP-induced G1 arrest,"cell cycle progression; WT THP1, 25 μM KU-55933, cGAMP 24 hours",suppressed the ability of cGAMP to induce γH2AX and pCHK2 (FIG. 9A) and to induce G1 arrest
same,HDR under ATM inhibition alone,HEK293-TrLR cells; 25 μM KU-55933,impeded HDR in its own right
same,ATM phosphorylation on Ser1981,ATM,suppressed
O=C(NCCCNc1nc(Nc2cccc(CN3CCOCC3)c2)ncc1C1CC1)C1CCC1 [MRT67307],"effect on cGAMP-induced phosphorylation of ATM (S1981), CHK2, and H2AX","DDR signaling [2]; THP1 pretreated with 2 μM TBK1 inhibitor, cGAMP 16 hours","suppressed cGAMP-induced phosphorylation of ATM (S1981), CHK2, and H2AX"
same,ATM phosphorylation on Ser1981,ATM,suppressed
CC[C@@]1(O)C(=O)OCc2c1cc1n(c2=O)Cc2cc3ccccc3nc2-1 [camptothecin],DDR induction in cells lacking STING or TBK1,DDR signaling [2],abrogated
same,"phosphorylation of H2AX, ATM, and CHK2","DDR signaling [2]; cGAS−/− THP1, camptothecin 2 μM 4 hours",all suppressed
same,DDR signaling (γH2AX),DDR signaling [3],suppressed both in cGAS^−/− and cGAS^(GS198AA) primary MEFs
COc1cccc2c1C(=O)c1c(O)c3c(c(O)c1C2=O)C[C@@](O)(C(=O)CO)C[C@@H]3O[C@H]1C[C@H](N)[C@H](O)[C@H](C)O1 [doxorubicin],TBK1 phosphorylation (pTBK1),Crassostrea virginica,TBK1 phosphorylation
same,γH2AX,Crassostrea virginica,elevated levels of γH2AX
same,cGAMP production,cGAMP,reacted by producing cGAMP
same,γH2AX foci in cGAS- and STING-deficient cells,γH2AX; doxorubicin-treated THP1 cells,significant reduction in the intensity of γH2AX foci
same,γH2AX staining pattern,"γH2AX; human RPE cells, doxorubicin 2 hours, cGAMP or HT-DNA 6 hours",catalyzed the formation of γH2AX foci characteristic of DSB induction
same,cGAS association with ATM,cGAS [4],detected no such interactions
same,cGAS complex with γH2AX,cGAS [4],nuclear translocated cGAS was found in a complex with γH2AX
same,"nuclear enrichment of TBK1, pTBK1, STING","cGAS, STING, and TBK1",promoted nuclear enrichment of TBK1 but not STING
same,nuclear enrichment of cGAS,"cGAS, STING, and TBK1",nuclear enrichment of cGAS
same,DDR induction in cells lacking STING or TBK1,DDR signaling [2],abrogated
same,DDR signaling (γH2AX),DDR signaling [3],suppressed both in cGAS^−/− and cGAS^(GS198AA) primary MEFs
same,TBK1 phosphorylation (pTBK1),Nematostella vectensis,TBK1 phosphorylation
same,γH2AX,Nematostella vectensis,elevated levels of γH2AX
NC(=O)c1cccnc1 [nicotinamide],effect on cGAMP-driven inhibition of protein PARylation,PARylation,abrogated cGAMP-driven inhibition of protein PARylation and HDR
same,effect on cGAMP-driven inhibition of cellular PARP enzymatic activity,"PARP; THP1, 2 mM, 4 mM and 8 mM NAM, 18 hours",overcame cGAMP-driven inhibition of cellular PARP enzymatic activity
same,effect on cGAMP-driven inhibition of HDR,HEK293-TrLR cells; 2 mM and 4 mM NAM,abrogated cGAMP-driven inhibition of protein PARylation and HDR
same,cellular NAD^+ levels with nicotinamide supplementation,NAD^+,Boosting cellular NAD^+ levels
O=C(c1cc(Cc2n[nH]c(=O)c3ccccc23)ccc1F)N1CCN(C(=O)C2CC2)CC1 [olaparib],cGAS-PARP1 interactions and DNA damage-induced nuclear cGAS translocation,cGAS [5],blocked
CNCc1ccc(-c2[nH]c3cc(F)cc4c3c2CCNC4=O)cc1 [rucaparib],PARP enzymatic activity in cell lysates,"PARP; THP1, cGAMP 6 hours, Rucaparib 10 μM, 6 hr",lower PARP enzymatic activity
same,abundance of S/G2-phase cells,"cell cycle progression; THP1 10 μM Rucaparib (propidium iodide), U2OS-STING (EdU)",causes increased abundance of S/G2-phase cells
same,DNA damage-induced RAD51 and RPA foci formation,U2OS-STING cells,suppressed DNA damage-induced RAD51 and RPA foci formation in EdU-positive S-phase cells
same,HDR,HEK293-TrLR cells; 1 μM PARP inhibitor (Rucaparib),significantly reduced HDR in TrLR reporter cells
Pam3CSK4,DDR activation (γH2AX),"DDR signaling [3]; WT primary MEF, Pam3CSK4 500 ng/ml 6 hours, HT-DNA 4 ug/6-well 6 hours, 5′ppp-dsRNA 0.5 μg/6 well 6 hours, cGAMP 16 hours",failed to stimulate the DDR
